Laboratory results from patent US6303349A, “Esterase and methods for the production of optically active chroman compounds” (Mitsui Chemicals, Inc., priority 1997, dated 2001).
Each block holds one compound with its values, some of them ahead of it.

Test system: esterase from Pseudonocardia thermophila FERM BP-6275, homogeneously purified (Example 2)
Assay: Effect of inhibitors on the purified esterase (remaining hydrolysis of racemic 6-aminochroman-3-acetic acid methyl ester)
Type: biochemical

Relative activity (inhibitor 0.1 mM, pre-incubated 30° C. 30 min, pH 7.2, reaction 55° C. 30 min, 100% = activity without inhibitors): 102%
SMILES: OC(CS)C(O)CS (stereo not shown) [DTT]

SMILES: O=C(O)CN(CCN(CC(=O)O)CC(=O)O)CC(=O)O [EDTA]
Relative activity (pH 7.2, 30 min, 5000 µM): 103

SMILES: O=S(=O)(F)Cc1ccccc1 [PMSF, phenylmethylsulfonyl fluoride]
Relative activity (pH 7.2, 30 min, 100 µM): 84 | remaining enzyme activity (pH 7.2, 30 min, 100 µM): 85%
